Data: patent USRE35904E, “Method and probes for detecting nucleoside transporter and method for producing the probes” (Governors of the University of Alberta, priority 1995, dated 1998)

Tests used:
[1] = system: es nucleoside transporter; conditions: Gati et al. 1987; cited from earlier work
[2] = target: T1, es nucleoside transporter (Mus musculus, UniProt Q9JIM1); assay: [3H]NBMPR equilibrium binding to L1210/B23.1 cells and its inhibition by SAENTA-fluorescein probes; conditions: 22°, replots of Kd(app)/Bmax versus [probe], read-out: Ki (mean ± S.D.)
T1 construct: endogenous in cells; host or cells: L1210/B23.1 mouse leukemia cells
T1 sequence (Q9JIM1 1-460): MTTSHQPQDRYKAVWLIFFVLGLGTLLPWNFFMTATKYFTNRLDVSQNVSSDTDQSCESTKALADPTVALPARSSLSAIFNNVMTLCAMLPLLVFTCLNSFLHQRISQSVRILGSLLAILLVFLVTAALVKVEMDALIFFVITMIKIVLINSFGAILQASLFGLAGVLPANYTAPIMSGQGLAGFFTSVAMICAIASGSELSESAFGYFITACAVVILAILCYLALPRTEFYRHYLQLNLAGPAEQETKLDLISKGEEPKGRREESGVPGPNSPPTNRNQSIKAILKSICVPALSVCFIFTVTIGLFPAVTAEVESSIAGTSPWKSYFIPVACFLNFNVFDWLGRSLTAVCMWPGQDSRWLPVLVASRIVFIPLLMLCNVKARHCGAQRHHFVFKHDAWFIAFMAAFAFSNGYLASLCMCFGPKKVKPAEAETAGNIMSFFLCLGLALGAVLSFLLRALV

[3] = target: T1, es nucleoside transporter; assay: Flow cytometric staining of L1210/B23.1 cells (es nucleoside transporter-expressing) by SAENTA-fluorescein probe; format: cell-based
Experimental: (§1) Flow cytometric measurements of binding of .[.SAENTA-x2 -fluorescein.]. .Iadd.SAENTA-X2-fluorescein .Iaddend.prepared as in Example 3 was carried out as in Example 4 using two clonal lines of cultured mouse leukemia L 1210 cells, L 1210/B23.1 and L 1210/MA-27.1. L 1210/B23.1 expresses NBMPR binding sites and nuclesoside transporter activity whereas L 1210/MA-27.1 cells lack both of these features.
(§2) Staining conditions were chosen to minimise non-specific fluorescence signals from L 1210/MA-27.1 cells treated with the nucleoside.
(§3) Cells were exposed for 10 min at 4° C. to phosphate-buffered (pH 8.0) salts medium containing 40 nM .[.5(SAENTA-xx2)fluorescein.]. .Iadd.5-(SAENTA-X2)-fluorescein .Iaddend.prior to flow cytometric analysis in a BD FACSan instrument; 10^5 cells were analysed. Cells in replicate assay mixtures were also exposed for 5 min at 22° C. to medium containing 10 μM NBMPR and then for 10 min at 4° C. to medium containing both NBMPR and .[.5-SAENTA-x2)-fluorescein.]. .Iadd.5-(SAENTA-X2)-fluorescein.Iaddend..
(a) Clonal lines of mouse leukemia cells were exposed for 10 min at 4° C. to phosphate buffered (pH 8.0) saline containing […] .[.5-(SAENTA-x2)-fluorescein.]. .Iadd.5-(SAENTA-X2)-fluorescein .Iaddend.(prepared as in Example 3) prior to flow cytometric analysis in a BD FACScan instrument; 10^4 cells were analysed. Cells in replicate mixtures were also exposed for 5 min at 22° C. to medium containing 10 μM NBMPR and then for 10 min at 4° C. to medium containing both NBMPR and .[.5-(SAENTA-x2)-fluorescein.]. .Iadd.5-(SAENTA-X2)-fluorescein.Iaddend.. L 1210/B23.1 cells express the es nucleoside transport system whereas L 1210/MA-27.1 cells lack that activity.

L 1210/MA-27.1 cells = assay: Flow cytometric staining of L1210/MA-27.1 cells (lacking es nucleoside transporter); format: cell-based, mouse; conditions: with or without NBMPR pretreatment, FIG. 9
Experimental: as §1, §2, §3
(a) Clonal lines of mouse leukemia cells were exposed for 10 min at 4° C. to phosphate buffered (pH 8.0) saline containing […] .[.5-(SAENTA-x2)-fluorescein.]. .Iadd.5-(SAENTA-X2)-fluorescein .Iaddend.(prepared as in Example 3) prior to flow cytometric analysis in a BD FACScan instrument; 10^4 cells were analysed. […]

[4] = target: T1, es nucleoside transporter; assay: Concentration-dependence of fluorescent staining of L1210/B23.1 cells by flow cytometry; format: cell-based; conditions: 40 min, 4° C., pH 8.0, autofluorescence 298
Experimental: (b) Concentration-dependence of fluorescent staining of L 1210/23.1 cells by .[.5-(SAENTA-x2)-fluorescein.]. .Iadd.5-(SAENTA-X2)-fluorescein .Iaddend.was measured and the results are set out in Table 4.
Cells in PBS at pH 8.0 were incubated with the listed concentrations of the SAENTA-fluor probe at 4° C. for 40 min prior to flow cytometric analysis.

In the case of “[^125 I]Iodohydroxynitrobenzylthioinosine [[125I]Iodohydroxynitrobenzylthioinosine]”, the non-specific adsorption [1] is given as “high non-specific adsorption”.

With `O=C1OC2(c3ccc(O)cc3Oc3cc(O)ccc32)c2ccc(NC(=S)NCCSC[C@H]3O[C@@H](n4cnc5c(NCc6ccc([N+](=O)[O-])cc6)ncnc54)[C@H](O)[C@@H]3O)cc21` [5-(SAENTA-X2)-fluorescein, 5'-S-[2-(Fluorescein-5-thioureidyl)ethyl]-N^6-(4-nitrobenzyl)-5'-thioadenosine] the Ki [2] was 17 ± 8 nM, the “staining of L1210/B23.1 cells” value ([3]; 40 mM (so in the source), 10 min, 4° C., pH 8.0, FIG. 9) was “stained 1210/B23.1 cells” and the “specificity of staining of the cell lines” value ([3]; L1210/B23.1 versus L1210/MA27.1, FIG. 9) was “specific for the es nucleoside transporter system”. The “fluorescence of L1210/MA27.1 cells after staining compared with autofluorescence” value (L 1210/MA-27.1 cells) was “very similar”, the Fluorescence intensity ([4]; 5 nM) was 301 mean channel no and the Fluorescence intensity ([4]; 10 nM) was 344 mean channel no. It also gave a Fluorescence intensity ([4]; 20 nM) of 372 mean channel no, a Fluorescence intensity ([4]; 40 nM) of 407 mean channel no and a Fluorescence intensity ([4]; 60 nM) of 427 mean channel no. It also gave a Fluorescence intensity ([4]; 80 nM) of 429 mean channel no, a Fluorescence intensity ([4]; 160 nM) of 497 mean channel no and a Fluorescence intensity ([4]; 320 nM) of 601 mean channel no. For the same compound, the Fluorescence intensity ([4]; 640 nM) was 691 mean channel no and the Fluorescence intensity ([4]; 1280 nM) was 761 mean channel no.
